Reference: patent US9440982B2 (Eolas Therapeutics, Inc., priority 2012, dated 2016)

target: T1, OX1 (Homo sapiens, UniProt O43613); experiment: Orexin receptor cell-based functional assay, [Ca2+]i by FLIPR, CHO-OX1 cells; conditions: CHO-OX1 cells, [Ca2+]i by FLIPR, antagonist dose-range 0.1 nM-10 μM, EC90 of OXA; read-out: OX1
T1 construct: expressed in transfected cells; host or cells: CHO (CHO-OX1, kept under selection antibiotic)
T1 sequence (O43613 1-425): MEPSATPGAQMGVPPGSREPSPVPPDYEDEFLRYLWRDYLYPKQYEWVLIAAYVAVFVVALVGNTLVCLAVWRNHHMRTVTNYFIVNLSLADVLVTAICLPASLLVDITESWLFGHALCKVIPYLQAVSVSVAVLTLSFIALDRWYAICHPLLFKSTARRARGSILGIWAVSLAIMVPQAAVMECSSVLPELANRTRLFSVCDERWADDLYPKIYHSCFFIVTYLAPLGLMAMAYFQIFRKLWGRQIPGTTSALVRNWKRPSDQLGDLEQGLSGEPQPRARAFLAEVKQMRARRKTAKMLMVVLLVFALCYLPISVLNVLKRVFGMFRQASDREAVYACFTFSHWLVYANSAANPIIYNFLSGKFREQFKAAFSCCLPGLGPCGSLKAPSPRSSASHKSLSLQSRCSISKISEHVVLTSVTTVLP
Method in brief: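 Antagonist mode FLIPR calcium read in CHO-OX1 and CHO-OX2 lines. Test compounds, dosed 0.1 nM-10 μM, preincubated 30 min after 37° C dye loading with 2.5 mM probenecid (calcium4 for 30 min or calcium6 for 2 h).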

SMILES	IC50
Cc1ccc(-c2ccccn2)c(C(=O)N2CCC[C@@H](C)[C@H]2CNc2ccc(C#N)cn2)c1 [Example A60, 6-((((2S,3R)-3-Methyl-1-(5-methyl-2-(pyridin-2-yl)benzoyl)piperidin-2-yl)methyl)amino)nicotinonitrile]	490 nM
Cc1ccc(-n2cnc(C)n2)c(C(=O)N2CCC[C@@H](C)[C@H]2CNc2nc3cc(Cl)ccc3o2)c1 [Example A29, ((2S,3R)-2-(((5-Chlorobenzo[d]oxazol-2-yl)amino)methyl)-3-methylpiperidin-1-yl)(5-methyl-2-(3-methyl-1H-1,2,4-triazol-1-yl)phenyl)methanone]	87 nM
C[C@@H]1CCCN(C(=O)c2cc(Cl)ccc2-n2nccn2)[C@@H]1CNc1ncc(C(F)(F)F)cn1 [Example A160, (5-Chloro-2-(2H-1,2,3-triazol-2-yl)phenyl)((2S,3R)-3-methyl-2-(((5-(trifluoromethyl)pyrimidin-2-yl)amino)methyl)piperidin-1-yl)methanone]	1 nM

target: T2, CYP3A4 (Homo sapiens, UniProt P08684); experiment: Cytochrome P450 inhibition assay (midazolam hydroxylation); type: in vitro ADME; conditions: human, human liver microsomes, probe midazolam (hydroxylation to 1′-hydroxymidazolam), 10 μM test compound, midazolam at approximately its Km
T2 construct: pre-incubated with human liver microsomes and NADPH; from tissue; host or cells: human liver microsomes
T2 sequence (P08684 whole entry): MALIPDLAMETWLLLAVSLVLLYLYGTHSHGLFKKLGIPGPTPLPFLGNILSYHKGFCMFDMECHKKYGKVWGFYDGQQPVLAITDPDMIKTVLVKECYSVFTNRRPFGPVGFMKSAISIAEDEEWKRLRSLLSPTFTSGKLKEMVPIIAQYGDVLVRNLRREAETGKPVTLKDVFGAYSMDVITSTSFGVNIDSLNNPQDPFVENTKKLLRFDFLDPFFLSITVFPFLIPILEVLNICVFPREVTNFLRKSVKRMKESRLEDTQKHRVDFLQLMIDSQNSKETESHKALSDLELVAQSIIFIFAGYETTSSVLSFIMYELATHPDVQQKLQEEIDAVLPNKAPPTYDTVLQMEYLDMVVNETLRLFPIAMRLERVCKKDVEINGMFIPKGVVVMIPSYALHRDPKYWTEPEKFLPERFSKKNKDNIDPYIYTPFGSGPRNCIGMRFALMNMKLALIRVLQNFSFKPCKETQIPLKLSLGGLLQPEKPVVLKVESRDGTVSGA
Method in brief: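 Percent inhibition of midazolam 1′-hydroxylation by 10 μM compound was measured, midazolam dosed at about Km. Time-dependent inhibition was probed by a 30 min preincubation of compound with human liver microsomes and NADPH ahead of substrate, compared against samples without preincubation.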

SMILES	inhibition at 10 µM
Cc1ccc(-c2ccccn2)c(C(=O)N2CCC[C@@H](C)[C@H]2CNc2ccc(C#N)cn2)c1 [Example A60, 6-((((2S,3R)-3-Methyl-1-(5-methyl-2-(pyridin-2-yl)benzoyl)piperidin-2-yl)methyl)amino)nicotinonitrile]	69%
Cc1ccc(-n2cnc(C)n2)c(C(=O)N2CCC[C@@H](C)[C@H]2CNc2nc3cc(Cl)ccc3o2)c1 [Example A29, ((2S,3R)-2-(((5-Chlorobenzo[d]oxazol-2-yl)amino)methyl)-3-methylpiperidin-1-yl)(5-methyl-2-(3-methyl-1H-1,2,4-triazol-1-yl)phenyl)methanone]	91%
COc1ccc(NC[C@@H]2[C@H](C)CCCN2C(=O)c2cc(C)ccc2-n2nccn2)nc1 [Example A126, ((2S,3R)-2-(((5-Methoxypyridin-2-yl)amino)methyl)-3-methylpiperidin-1-yl)(5-methyl-2-(2H-1,2,3-triazol-2-yl)phenyl)methanone]	56%
Cc1ccc(-n2nccn2)c(C(=O)N2CCC[C@@H](C)[C@H]2CNc2ncccc2C#N)c1 [Example A90, 2-((((2S,3R)-3-Methyl-1-(5-methyl-2-(2H-1,2,3-triazol-2-yl)benzoyl)piperidin-2-yl)methyl)amino)nicotinonitrile]	33%
Cc1ccc(-n2nccn2)c(C(=O)N2CCC[C@@H](C)[C@H]2CNc2ncc3ccccc3n2)c1 [Example A216, ((2S,3R)-3-Methyl-2-((quinazolin-2-ylamino)methyl)piperidin-1-yl)(5-methyl-2-(2H-1,2,3-triazol-2-yl)phenyl)methanone]	67%
Cc1ccc(-n2nccn2)c(C(=O)N2CCC[C@@H](C)[C@H]2CNc2cc(C)nc3nc(C)nn23)c1 [Example A213, ((2S,3R)-2-(((2,5-Dimethyl-[1,2,4]triazolo[1,5-a]pyrimidin-7-yl)amino)methyl)-3-methylpiperidin-1-yl)(5-methyl-2-(2H-1,2,3-triazol-2-yl)phenyl)methanone]	19%
Cc1ccc(-c2ccnn2C)c(C(=O)N2CCC[C@@H](C)[C@H]2CNc2nc3cc(Cl)ccc3o2)c1 [Example A36, ((2S,3R)-2-(((5-Chlorobenzo[d]oxazol-2-yl)amino)methyl)-3-methylpiperidin-1-yl)(5-methyl-2-(1-methyl-1H-pyrazol-5-yl)phenyl)methanone]	97%
Cc1ccc(-c2ccccn2)c(C(=O)N2CCC[C@@H](C)[C@H]2CNc2nc3cc(F)ccc3o2)c1 [Example A128, ((2S,3R)-2-(((5-Fluorobenzo[d]oxazol-2-yl)amino)methyl)-3-methylpiperidin-1-yl)(5-methyl-2-(pyridin-2-yl)phenyl)methanone]	88%
Cc1ccc(-n2nccn2)c(C(=O)N2CCC[C@@H](C)[C@H]2CNc2nc(C)cs2)c1 [Example A124, ((2S,3R)-3-Methyl-2-(((4-methylthiazol-2-yl)amino)methyl)piperidin-1-yl)(5-methyl-2-(2H-1,2,3-triazol-2-yl)phenyl)methanone]	55%
COc1cccnc1NC[C@@H]1[C@H](C)CCCN1C(=O)c1cc(C)ccc1-c1cnn(C)c1 [Example A101, ((2S,3R)-2-(((3-Methoxypyridin-2-yl)amino)methyl)-3-methylpiperidin-1-yl)(5-methyl-2-(1-methyl-1H-pyrazol-4-yl)phenyl)methanone]	83%
Cc1ccc(-n2nccn2)c(C(=O)N2CCC[C@@H](C)[C@H]2CNc2nnc(C(F)(F)F)s2)c1 [Example A102, ((2S,3R)-3-Methyl-2-(((5-(trifluoromethyl)-1,3,4-thiadiazol-2-yl)amino)methyl)piperidin-1-yl)(5-methyl-2-(2H-1,2,3-triazol-2-yl)phenyl)methanone]	48%
Cc1ccc(-c2ncccn2)c(C(=O)N2CCC(F)(F)C[C@H]2CNc2ncc(C(F)(F)F)cn2)c1 [Example A312, (S)-(4,4-Difluoro-2-(((5-(trifluoromethyl)pyrimidin-2-yl)amino)methyl)piperidin-1-yl)(5-methyl-2-(pyrimidin-2-yl)phenyl)methanone]	40%

Continued, values first:

inhibition at 10 µM	SMILES
59%	C[C@@H]1CCCN(C(=O)c2cc(Cl)ccc2-n2nccn2)[C@@H]1CNc1ncc(C(F)(F)F)cn1 [Example A160, (5-Chloro-2-(2H-1,2,3-triazol-2-yl)phenyl)((2S,3R)-3-methyl-2-(((5-(trifluoromethyl)pyrimidin-2-yl)amino)methyl)piperidin-1-yl)methanone]
90%	Cc1ccc(-n2nccn2)c(C(=O)N2CCC[C@@H](C)[C@H]2CNc2nccc(C(F)(F)F)n2)c1 [Example A163, ((2S,3R)-3-Methyl-2-(((4-(trifluoromethyl)pyrimidin-2-yl)amino)methyl)piperidin-1-yl)(5-methyl-2-(2H-1,2,3-triazol-2-yl)phenyl)methanone]
84%	Cc1ccc(-n2ccc(C)n2)c(C(=O)N2CCC[C@@H](C)[C@H]2CNc2ncc(C#N)cn2)c1 [Example A131, 2-((((2S,3R)-3-Methyl-1-(5-methyl-2-(3-methyl-1H-pyrazol-1-yl)benzoyl)piperidin-2-yl)methyl)amino)pyrimidine-5-carbonitrile]
42%	C[C@@H]1CCCN(C(=O)c2c(F)cccc2-c2ncccn2)[C@@H]1CNc1ncc(C(F)(F)F)cn1 [Example A240, (2-Fluoro-6-(pyrimidin-2-yl)phenyl)((2S,3R)-3-methyl-2-(((5-(trifluoromethyl)pyrimidin-2-yl)amino)methyl)piperidin-1-yl)methanone]
76%	Cc1ccc(-c2ccc(F)cc2)c(C(=O)N2CCC[C@@H](C)[C@H]2CNc2ccc(C(F)(F)F)cn2)n1 [Example A73, (3-(4-Fluorophenyl)-6-methylpyridin-2-yl)((2S,3R)-3-methyl-2-(((5-(trifluoromethyl)pyridin-2-yl)amino)methyl)piperidin-1-yl)methanone]
91%	Cc1ccc(-c2cccc(C)n2)c(C(=O)N2CCC[C@@H](C)[C@H]2CNc2ccc(C(F)(F)F)cn2)c1 [Example A104, ((2S,3R)-3-Methyl-2-(((5-(trifluoromethyl)pyridin-2-yl)amino)methyl)piperidin-1-yl)(5-methyl-2-(6-methylpyridin-2-yl)phenyl)methanone]
97%	Cc1ccc(-c2cnn(C)c2)c(C(=O)N2CCC[C@@H](C)[C@H]2CNc2ncc(C(F)(F)F)cc2F)c1 [Example A83, ((2S,3R)-2-(((3-Fluoro-5-(trifluoromethyl)pyridin-2-yl)amino)methyl)-3-methylpiperidin-1-yl)(5-methyl-2-(1-methyl-1H-pyrazol-4-yl)phenyl)methanone]
99%	Cc1ccc(-c2cnn(C)c2)c(C(=O)N2CCC[C@@H](C)[C@H]2CNc2cccc(C(F)(F)F)n2)c1 [Example A94, ((2S,3R)-3-Methyl-2-(((6-(trifluoromethyl)pyridin-2-yl)amino)methyl)piperidin-1-yl)(5-methyl-2-(1-methyl-1H-pyrazol-4-yl)phenyl)methanone]
51%	Cc1cccc(C(=O)N2CCC[C@@H](C)[C@H]2CNc2ncc(C(F)(F)F)cn2)c1-c1ncccn1 [Example A299, ((2S,3R)-3-Methyl-2-(((5-(trifluoromethyl)pyrimidin-2-yl)amino)methyl)piperidin-1-yl)(3-methyl-2-(pyrimidin-2-yl)phenyl)methanone]
86%	Cc1ccc(-c2ccccn2)c(C(=O)N2CCC[C@@H](C)[C@H]2CNc2nnc(C(F)(F)F)s2)c1 [Example A151, ((2S,3R)-3-Methyl-2-(((5-(trifluoromethyl)-1,3,4-thiadiazol-2-yl)amino)methyl)piperidin-1-yl)(5-methyl-2-(pyridin-2-yl)phenyl)methanone]
57%	Cc1nc(C(=O)N2CCCC(C)C2CNc2ncc(C(F)(F)F)cn2)c(-c2ccc(F)cc2)s1 (racemic) [Example A311, (+/−)-cis-(5-(4-Fluorophenyl)-2-methylthiazol-4-yl)(3-methyl-2-(((5-(trifluoromethyl)pyrimidin-2-yl)amino)methyl)piperidin-1-yl)methanone]
95%	Cc1ccc(-c2ccc(C)cc2C(=O)N2CCC[C@@H](C)[C@H]2CNc2ccc(C(F)(F)F)cn2)nc1 [Example A118, ((2S,3R)-3-Methyl-2-(((5-(trifluoromethyl)pyridin-2-yl)amino)methyl)piperidin-1-yl)(5-methyl-2-(5-methylpyridin-2-yl)phenyl)methanone]
51%	Cc1ccc(-c2cccnn2)c(C(=O)N2CCC[C@@H](C)[C@H]2CNc2ncc(C(F)(F)F)cn2)c1 [Example A198, ((2S,3R)-3-Methyl-2-(((5-(trifluoromethyl)pyrimidin-2-yl)amino)methyl)piperidin-1-yl)(5-methyl-2-(pyridazin-3-yl)phenyl)methanone]
